pIC50: −log10 of the molar value. Where a name gives a salt, the structure may show the parent alone.

Sequence of human histamine 3 receptor (hH3R) (Q9Y5N1 whole entry): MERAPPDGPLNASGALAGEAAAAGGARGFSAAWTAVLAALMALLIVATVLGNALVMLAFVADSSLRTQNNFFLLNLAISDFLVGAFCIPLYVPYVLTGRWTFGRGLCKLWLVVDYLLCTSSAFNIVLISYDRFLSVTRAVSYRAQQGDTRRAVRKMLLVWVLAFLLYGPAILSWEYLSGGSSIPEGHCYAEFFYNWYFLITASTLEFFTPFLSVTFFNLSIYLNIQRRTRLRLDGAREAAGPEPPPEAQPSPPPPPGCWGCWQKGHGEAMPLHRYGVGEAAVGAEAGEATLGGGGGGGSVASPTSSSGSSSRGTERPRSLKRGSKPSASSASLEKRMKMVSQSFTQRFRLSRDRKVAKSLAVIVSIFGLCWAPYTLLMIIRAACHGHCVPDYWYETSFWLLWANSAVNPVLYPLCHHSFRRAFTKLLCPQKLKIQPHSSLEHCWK

This assay concerns the target human histamine 3 receptor (hH3R) (Homo sapiens (Human), UniProt Q9Y5N1). As to the kind of experiment: Binding affinity of human histamine 3 receptor (hH3R), [3H] labeled N-α-methylhistamine displacement. The note with it: hH3R-overexpressed cell membrane, [3H] N-α-methylhistamine. As for the experimental part:
10 μL of the prepared compound solution was allocated in each well of a 96-well plate, and then 10 μL of 200 μM (R)(−)-α-methylhistamine (RaMH) diluted with analysis buffer and 1% of DMSO were transferred to each well to calculate non-specific binding and total binding degree. 15 μg of human histamine 3 receptor-overexpressed cell membrane (PerkinElmer) was diluted with 180 μL of analysis buffer solution (50 mM tris-HCl pH 7.4, 5 mM MgCl2), and that was transferred to each well. [^3H] labeled Na-methylhistamine (PerkinElmer) was diluted into […], 10 μL of that was added to each well, and then it was kept in a 27° C. incubator for 30 minutes. After the reaction, 200 μL of the mixture was transferred to a glass fiber plate in which 0.5% polyethylene amine was presoaked, and then non-binding [^3H] labeled Na-methylhistamine was removed in vacuum. After 5 times washing with 200 μL of washing buffer solution (50 mM tris-HCl, pH 7.4), the plate was dried in a 37° C. oven for 18 hours. 100 μL of betascint cocktail solution was added to each well, and after 1 hour CPM of [^3H] labeled N-α-methylhistamine was measured by using Wallac beta-counter TriLux. The binding affinity (IC50) of the human histamine 3 receptor for the present invention was analyzed by an Excel program, and the results of analysis are shown in Table 2.
In the case of `NC1CN(c2nc3ncc(Cl)cc3n3cnnc23)C1` [Compound 8, 1-(8-Chloropyrido[2,3-e][1,2,4]triazolo[4,3-a]pyrazin-4-yl)azetidin-3-amine], the pIC50 (usually the IC50 on a negative log10 scale, so that one unit is a factor of ten) was under 4.00.
The figure for `Cc1nnc2c(N3CCN(C)CC3)nc3ncc(Cl)cc3n12` [Compound 14, 8-Chloro-1-methyl-4-(4-methylpiperazin-1-yl)pyrido[2,3-e][1,2,4]triazolo[4,3-a]pyrazine] is under 4.00.
Take `CN[C@@H]1CCN(c2nc3ncc(Br)cc3n3cnnc23)C1` [Compound 81, (R)-1-(8-bromopyrido[2,3-e][1,2,4]triazolo[4,3-a]pyrazin-4-yl)-N-methylpyrrolidin-3-amine]: the pIC50 was under 4.00.
The figure for `CCc1cnc2nc(N3CC(NC)C3)c3nncn3c2c1` [Compound 56, 1-(8-Ethylpyrido[2,3-e][1,2,4]triazolo[4,3-a]pyrazin-4-yl)-N-methylazetidin-3-amine] is under 4.00; for `CNC1(C)CN(c2nc3ncc(Br)cc3n3cnnc23)C1` [Compound 73, 1-(8-Bromopyrido[2,3-e][1,2,4]triazolo[4,3-a]pyrazin-4-yl)-N,3-dimethylazetidin-3-amine] it is under 4.00.
The value for `CNC1CN(c2nc3ncc(Cl)cc3c3ncnn23)C1` [Compound 36, 1-(9-Chloropyrido[3,2-e][1,2,4]triazolo[1,5-c]pyrimidin-5-yl)-N-methylazetidin-3-amine] was under 4.00; that for `CNC1CN(c2nc3nc(C)c(Br)cc3n3cnnc23)C1` [Compound 99, 1-(8-bromo-7-methylpyrido[2,3-e][1,2,4]triazolo[4,3-a]pyrazin-4-yl)-N-methylazetidin-3-amine] was under 4.00.
The value for `CC1CN(c2nc3ncc(Cl)cc3n3cnnc23)CC(C)N1C` (stereo not drawn) [Compound 22, 8-Chloro-4-(3,4,5-trimethylpiperazin-1-yl)pyrido[2,3-e][1,2,4]triazolo[4,3-a]pyrazine] was under 4.00; that for `CNC1CN(c2nc3ncc(Cl)cc3n3nc(C)nc23)C1` [Compound 97, 1-(8-Chloro-2-methylpyrido[2,3-e][1,2,4]triazolo[1,5-a]pyrazin-4-yl)-N-methylazetidin-3-amine] was 4.06; that for `CNC1CN(c2nc3nc(O)c(Cl)cc3n3cnnc23)C1` [Compound 101, 8-chloro-4-(3-(methylamino)azetidin-1-yl)pyrido[2,3-e][1,2,4]triazolo[4,3-a]pyrazin-7-ol HCl salt] was under 4.00.
Compound `CN1CCN(c2nc3ncccc3n3cnnc23)CC1` [Compound 3, 4-(4-Methylpiperazin-1-yl)pyrido[2,3-e][1,2,4]triazolo[4,3-a]pyrazine] had a pIC50 of under 4.00.
The value for `CNC1CN(c2nc3ncc(Cl)cc3c3nc(C)nn23)C1` [Compound 33, 1-(9-Chloro-2-methylpyrido[3,2-e][1,2,4]triazolo[1,5-c]pyrimidin-5-yl)-N-methylazetidin-3-amine] was under 4.00.
`CNC1CN(c2nc3ncc(Cl)cc3c3cn(C)nc23)C1` [Compound 44, 1-(8-Chloro-2-methyl-2H-pyrazolo[3,4-c][1,8]naphthylidine-4-yl)-N-methylazetidin-3-amine] showed a pIC50 of under 4.00.
The value for `CNC1CN(c2nc3ncc(-c4ccco4)cc3n3cnnc23)C1` [Compound 114, 1-(8-(furan-2-yl)pyrido[2,3-e][1,2,4]triazolo[4,3-a]pyrazin-4-yl)-N-methylazetidin-3-amine] was under 4.00; that for `CN[C@@H]1CCN(c2nc3ncc(Cl)cc3n3cnnc23)C1` [Compound 10, (R)-1-(8-chloropyrido[2,3-e][1,2,4]triazolo[4,3-a]pyrazin-4-yl)-N-methylpyrrolidin-3-amine] was under 4.00.

(Values after patent publication US9586959B2, “Substituted tricyclic heterocycles as histamine 4 receptor inhibitors” (C&C RESEARCH LABORATORIES, priority 2011, dated 2017).)
